{"source": "paper PMC11284788", "about": "“NN1213 – A Potent, Long-Acting, and Selective Analog of Human Amylin” (Journal of Medicinal Chemistry, 2024)", "key": {"rAMY3R": {"biological_target": "T1, rAMY3R (Rattus norvegicus, UniProt P32214+Q9JJ73)", "T1 sequence (P32214 25-479 isoform P32214-2 limits assumed)": "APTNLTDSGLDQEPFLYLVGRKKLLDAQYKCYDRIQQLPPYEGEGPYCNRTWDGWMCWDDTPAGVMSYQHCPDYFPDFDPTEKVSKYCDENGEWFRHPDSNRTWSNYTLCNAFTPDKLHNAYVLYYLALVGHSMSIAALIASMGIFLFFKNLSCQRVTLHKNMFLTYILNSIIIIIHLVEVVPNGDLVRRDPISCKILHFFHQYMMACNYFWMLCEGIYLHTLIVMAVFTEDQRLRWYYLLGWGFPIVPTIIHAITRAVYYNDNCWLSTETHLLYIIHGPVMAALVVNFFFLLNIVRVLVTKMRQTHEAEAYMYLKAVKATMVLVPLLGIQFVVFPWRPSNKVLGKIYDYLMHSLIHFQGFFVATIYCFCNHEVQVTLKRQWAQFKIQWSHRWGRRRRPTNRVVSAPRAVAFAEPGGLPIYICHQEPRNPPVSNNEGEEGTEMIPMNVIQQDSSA", "T1 sequence (Q9JJ73 23-147 partner)": "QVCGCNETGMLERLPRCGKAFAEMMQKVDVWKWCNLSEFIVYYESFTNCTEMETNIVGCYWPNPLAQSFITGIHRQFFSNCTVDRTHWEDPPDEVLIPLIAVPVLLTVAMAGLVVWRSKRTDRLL", "test": "Species-specific cAMP assay, rAMY3R", "conditions": "ratio of cAMP EC50 values, rat receptors"}, "mAMY3R": {"biological_target": "T2, mAMY3R (Mus musculus, UniProt Q60755+Q9WUP1)", "T2 sequence (Q60755 42-496 isoform Q60755-2 limits assumed)": "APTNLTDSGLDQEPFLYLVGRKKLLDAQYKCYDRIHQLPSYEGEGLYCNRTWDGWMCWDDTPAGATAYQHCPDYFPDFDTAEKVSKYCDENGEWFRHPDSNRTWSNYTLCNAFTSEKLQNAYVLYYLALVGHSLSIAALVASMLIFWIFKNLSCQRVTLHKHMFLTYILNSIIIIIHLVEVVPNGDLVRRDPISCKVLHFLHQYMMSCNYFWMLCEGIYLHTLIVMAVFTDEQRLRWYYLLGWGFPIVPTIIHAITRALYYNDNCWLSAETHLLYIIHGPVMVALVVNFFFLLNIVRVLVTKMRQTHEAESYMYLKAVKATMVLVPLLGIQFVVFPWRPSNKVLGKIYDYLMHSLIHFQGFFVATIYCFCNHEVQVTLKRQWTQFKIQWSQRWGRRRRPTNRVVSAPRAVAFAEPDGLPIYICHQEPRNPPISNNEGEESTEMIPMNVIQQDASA", "T2 sequence (Q9WUP1 24-147 partner limits assumed)": "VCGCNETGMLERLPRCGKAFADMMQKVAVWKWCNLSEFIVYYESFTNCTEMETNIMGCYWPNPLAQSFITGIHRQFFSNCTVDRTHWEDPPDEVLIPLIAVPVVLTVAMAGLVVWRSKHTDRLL", "test": "Mouse receptor cAMP HTRF assay (BacMam, HeLa), mAMY3R", "conditions": "ratio of cAMP EC50 values, mouse receptors", "protocol": "Mouse Receptors (Functional Assay Only). Cell culture: HeLa cells were cultured in an incubator at 37 °C and 5% CO2, in cell culture medium (DMEM with 10% [v/v] FBS, 1% [w/w] penicillin/streptomycin).\nCell seeding in T75 flasks (day 1): The day before transfection of the cells, 2 x 10^6 HeLa cells were seeded in three T75 flasks and incubated overnight. Media was removed from 1–2 T175 flasks and cells were washed once with Dulbecco PBS (with Mg2+ and Ca2+). Cells were detached with 2 mL TrypLE Express for 5 min in an incubator. Five mL pre-warmed media was added to each T75 flask and mixed with the cell suspension. Cells were counted in 100 µL of this suspension. The cell suspension was centrifuged at 1200 rpm for 4 min and the supernatant was discarded. The cells were re-suspended in media and 2 x 10^6 cells were seeded in approximately 15 mL in each of the three T75 flasks. The flasks were incubated overnight.\nwith 20 µL poly-d-lysin/well for 2–3 h at 37 °C. The plates were washed twice with PBS and allowed\nTransfection of cells (day 2): Reagents were acclimated to room temperature for 30 min. Media was\nremoved from the T75 flasks, and cells were washed once with PBS (with Mg2+ and Ca2+). Cells were\nSeeding of transfected cells in assay plates (day 2): Following the 3-h transduction, T75 flasks were\nwashed once with PBS (with Mg2+ and Ca2+). […]\nmL pre-warmed media and counted."}}, "data": [{"compound": "CC[C@H](C)[C@H](NC(=O)[C@H](C)NC(=O)CNC(=O)[C@H](Cc1ccccc1)NC(=O)[C@H](CC(N)=O)NC(=O)[C@@H]1CCCN1C(=O)[C@H](CO)NC(=O)[C@H](CO)NC(=O)[C@H](Cc1c[nH]cn1)NC(=O)[C@H](CCCNC(=N)N)NC(=O)[C@H](CC(C)C)NC(=O)[C@H](Cc1ccccc1)NC(=O)[C@H](CC(=O)O)NC(=O)[C@H](C)NC(=O)[C@H](CC(C)C)NC(=O)[C@H](CCCNC(=N)N)NC(=O)[C@H](CCC(N)=O)NC(=O)[C@@H](NC(=O)[C@H](C)NC(=O)[C@@H]1CSSC[C@H](NC(=O)[C@@H](N)CCCCNC(=O)CC[C@H](NC(=O)CC[C@H](NC(=O)CCCCCCCCCCCCCCCCCCC(=O)O)C(=O)O)C(=O)O)C(=O)N[C@@H](CC(N)=O)C(=O)N[C@@H]([C@@H](C)O)C(=O)N[C@@H](C)C(=O)N[C@@H]([C@@H](C)O)C(=O)N1)[C@@H](C)O)C(=O)N1CCC[C@H]1C(=O)N[C@@H](CO)C(=O)N[C@@H](CO)C(=O)N[C@H](C(=O)N[C@@H](CC(N)=O)C(=O)N[C@H](C(=O)NCC(=O)N[C@@H](CO)C(=O)N[C@@H](CCCNC(=N)N)C(=O)N[C@H](C(=O)N[C@@H](Cc1ccc(O)cc1)C(N)=O)[C@@H](C)O)C(C)C)[C@@H](C)O", "note": "[NN1213]", "values": [{"measurement": "Ratio CTR/AMY3R (rat, functional)", "setting": "rAMY3R", "result": 144}, {"measurement": "Ratio CTR/AMY3R (mouse, functional)", "setting": "mAMY3R", "result": 24}]}]}
